From patent US9850225B2, “Compounds useful as immunomodulators” (BRISTOL-MYERS SQUIBB COMPANY, priority 2014, dated 2017)
Structures can show the parent of a compound that is named as a salt.

biological target: PD-1/PD-L1 interaction (PD-1-Ig / PD-L1-His) (Homo sapiens (Human), UniProt Q9NZQ7); assay: PD-1/PD-L1 Homogenous Time-Resolved Fluorescence (HTRF) binding assay; settings: PD-1/PD-L1 HTRF binding assay; numeric value; read-out: Range or IC50
From the text: The ability of the compounds of formula (I) to bind to PD-L1 was investigated using a PD-1/PD-L1 Homogenous Time-Resolved Fluorescence (HTRF) binding assay.
Homogenous Time-Resolved Fluorescence (HTRF) Binding Assay.
The interaction of PD-1 and PD-L1 can be assessed using soluble, purified preparations of the extracellular domains of the two proteins. The PD-1 and PD-L1 protein extracellular domains were expressed as fusion proteins with detection tags, for PD-1, the tag was the Fc portion of Immunoglobulin (PD-1-Ig) and for PD-L1 it was the 6 histidine motif (PD-L1-His). All binding studies were performed in an HTRF assay buffer consisting of dPBS supplemented with 0.1% […] bovine serum albumin and 0.05% (v/v) Tween-20. For the h/PD-L1-His binding assay, inhibitors were pre-incubated with PD-L1-His (10 nM final) for 15 m in 4 μl of assay buffer, followed by addition of PD-1-Ig (20 nM final) in 1 μl of assay buffer and further incubation for 15 m. HTRF detection was achieved using europium crypate-labeled anti-Ig (1 nM final) and allophycocyanin (APC) labeled anti-His (20 nM final). Antibodies were diluted in HTRF detection buffer and 5 μl was dispensed on top of the binding reaction. […] Additional binding assays were established between the human proteins PD-1-Ig/PD-L2-His (20 & 5 nM, respectively) and CD80-His/PD-L1-Ig (100 & 10 nM, respectively). […]

Chain of PD-1/PD-L1 interaction (PD-1-Ig / PD-L1-His) (Q9NZQ7 other isoform, or with tags, fused parts or gaps): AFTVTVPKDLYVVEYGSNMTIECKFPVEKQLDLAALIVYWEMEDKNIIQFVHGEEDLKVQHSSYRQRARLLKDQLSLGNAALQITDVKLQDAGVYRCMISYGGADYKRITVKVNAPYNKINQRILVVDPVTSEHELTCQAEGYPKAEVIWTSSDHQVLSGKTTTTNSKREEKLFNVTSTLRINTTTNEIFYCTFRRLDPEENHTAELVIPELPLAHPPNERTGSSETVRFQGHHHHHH

Row | Compound | IC50 [µM]
1 | Cc1c(COc2cc(OCc3cccc(C#N)c3)c(CN[C@H](CCO)C(=O)O)cc2Cl)cccc1-c1ccc2c(c1)OCCO2 [Example 1205, (R)-2-((5-chloro-2-((3-cyanobenzyl)oxy)-4-((3-(2,3-dihydrobenzo[b][1,4]dioxin-6-yl)-2-methylbenzyl)oxy)benzyl)amino)-4-hydroxybutanoic acid] | 0.00271
2 | Cc1c(COc2ccc(CN[C@](C)(CO)C(=O)O)c(OCc3cccc(C#N)c3)c2Cl)cccc1-c1ccc2c(c1)OCCO2 [Example 1239, (R)-2-((3-chloro-2-((3-cyanobenzyl)oxy)-4-((3-(2,3-dihydrobenzo[b][1,4]dioxin-6-yl)-2-methylbenzyl)oxy)benzyl)amino)-3-hydroxy-2-methylpropanoic acid] | 0.149
3 | Cc1cc(CN2CCCC[C@@H]2C(=O)O)c(OCc2cncc(C#N)c2)cc1OCc1cccc(-c2ccc3c(c2)OCCO3)c1C [Example 1288, (R)-1-(2-((5-cyanopyridin-3-yl)methoxy)-4-(3-(2,3-dihydrobenzo[b][1,4]dioxin-6-yl)-2-methylbenzyloxy)-5-methylbenzyl)piperidine-2-carboxylic acid] | 0.00188

same assay, conditions: PD-1/PD-L1 HTRF binding assay; value given as range class; read-out: Range or IC50

Row | Compound | IC50 [µM]
4 | CC(=O)NCCNCc1ccc(OCc2cccc(-c3ccccc3)c2C)cc1OCCO [Example 1030, N-(2-((2-(2-hydroxyethoxy)-4-((2-methyl-[1,1′-biphenyl]-3-yl)methoxy)benzyl)amino)ethyl)acetamide] | 0.1 to 20
5 | CC(=O)NCCNCc1ccc(OCc2cccc(-c3ccccc3)c2C)cc1OCc1ccccc1CO [Example 1038, N-(2-((2-((2-(hydroxymethyl)benzyl)oxy)-4-((2-methyl-[1,1′-biphenyl]-3-yl)methoxy)benzyl)amino)ethyl)acetamide] | 0.1 to 20
6 | Cc1c(COc2cc(O)c(CN[C@](C)(CO)C(=O)O)cc2Cl)cccc1-c1ccc2c(c1)OCCO2 [Example 1263, (R)-2-((5-chloro-4-((3-(2,3-dihydrobenzo[b][1,4]dioxin-6-yl)-2-methylbenzyl)oxy)-2-hydroxybenzyl)amino)-3-hydroxy-2-methylpropanoic acid, TFA] | 0.1 to 20
7 | Cc1c(COc2cc(OCc3cccc(C#N)c3)c(CNC[C@@H](O)CC(=O)O)cc2Br)cccc1-c1ccc2c(c1)OCCO2 [Example 1300, (S)-4-((5-bromo-2-((3-cyanobenzyl)oxy)-4-((3-(2,3-dihydrobenzo[b][1,4]dioxin-6-yl)-2-methylbenzyl)oxy)benzyl)amino)-3-hydroxybutanoic acid] | 0.0006 to 0.01
8 | Cc1c(COc2cc(OCc3cccc(C#N)c3)c(CNC(C(=O)O)C(F)(F)F)cc2Cl)cccc1-c1ccc2c(c1)OCCO2 (centres unmarked) [Example 1162, 2-((5-chloro-2-((3-cyanobenzyl)oxy)-4-((3-(2,3-dihydrobenzo[b][1,4]dioxin-6-yl)-2-methylbenzyl)oxy)benzyl)amino)-3,3,3-trifluoropropanoic acid] | 0.1 to 20
9 | CC(=O)NCCNCc1cc(C)c(OCc2cccc(-c3ccc4c(c3)OCCO4)c2C)cc1OCc1cccc(C#N)c1 [Example 1264, N-(2-((2-((3-cyanobenzyl)oxy)-4-((3-(2,3-dihydrobenzo[b][1,4]dioxin-6-yl)-2-methylbenzyl)oxy)-5-methylbenzyl)amino)ethyl)acetamide] | 0.0006 to 0.01
10 | Cc1c(COc2cc(OCc3cncc(C#N)c3)c(CN[C@@H](CC(=O)O)C(=O)O)cc2Cl)cccc1-c1ccc2c(c1)OCCO2 [Example 3023, (S)-2-((5-chloro-2-((5-cyanopyridin-3-yl)methoxy)-4-((3-(2,3-dihydrobenzo[b][1,4]dioxin-6-yl)-2-methylbenzyl)oxy)benzyl)amino)succinic acid] | 0.0006 to 0.01
11 | Cc1c(COc2cc(OCc3cccc(C#N)c3)c(CNC[C@@H](O)CC(=O)O)cc2Cl)cccc1-c1ccc2c(c1)OCCO2 [Example 1246, (S)-4-((5-chloro-2-((3-cyanobenzyl)oxy)-4-((3-(2,3-dihydrobenzo[b][1,4]dioxin-6-yl)-2-methylbenzyl)oxy)benzyl)amino)-3-hydroxybutanoic acid] | 0.0006 to 0.01
12 | Cc1c(COc2ccc(CNC[C@@H](O)CC(=O)O)c(OCc3cccc(C#N)c3)c2Cl)cccc1-c1ccccc1 [Example 1232, (S)-4-((3-chloro-2-((3-cyanobenzyl)oxy)-4-((2-methyl-[1,1′-biphenyl]-3-yl)methoxy)benzyl)amino)-3-hydroxybutanoic acid] | 0.1 to 20
13 | Cc1cc(OCc2cccc(-c3ccc4c(c3)OCCO4)c2C)cc(OCc2cncc(C#N)c2)c1CN[C@](C)(CO)C(=O)O [Example 1008, (R)-2-(2-((5-cyanopyridin-3-yl)methoxy)-4-(3-(2,3-dihydrobenzo[b][1,4]dioxin-6-yl)-2-methylbenzyloxy)-6-methylbenzylamino)-3-hydroxy-2-methylpropanoic acid] | 0.0006 to 0.01
14 | CC(=O)NCCNCc1ccc(OCc2cccc(-c3ccccc3)c2C)cc1OCc1cccc(Oc2ccccc2F)c1 [Example 1077, N-(2-((2-((3-(2-fluorophenoxyl)benzyl)oxy)-4-((2-methyl-[1,1′-biphenyl]-3-yl)methoxy)benzyl)amino)ethyl)acetamide] | 0.1 to 20
15 | CC(=O)NCCNCc1ccc(OCc2cccc(-c3ccccc3)c2C)cc1OCc1ccc(F)cc1F [Example 1064, N-(2-((2-((2,4-difluorobenzyl)oxy)-4-((2-methyl-[1,1′-biphenyl]-3-yl)methoxy)benzyl)amino)ethyl)acetamide] | 0.1 to 20
16 | CC[C@H](NCc1cc(Cl)c(OCc2cccc(-c3ccc4c(c3)OCCO4)c2C)cc1OCc1cccc(C#N)c1)C(=O)O [Example 1201, (S)-2-((5-chloro-2-((3-cyanobenzyl)oxy)-4-((3-(2,3-dihydrobenzo[b][1,4]dioxin-6-yl)-2-methylbenzyl)oxy)benzyl)amino)butanoic acid] | 0.0006 to 0.01
17 | Cc1c(COc2ccc(CNC(CO)C(=O)O)c(OCc3cccc(C#N)c3)c2)cccc1-c1ccccc1 (centres unmarked) [Example 1017, 2-((2-((3-cyanobenzyl)oxy)-4-((2-methyl-[1,1′-biphenyl]-3-yl)methoxy)benzyl)amino)-3-hydroxypropanoic acid] | 0.0006 to 0.01
18 | Cc1c(COc2cc(OCc3cncc(C#N)c3)c(CN[C@H](CO)C(=O)O)cc2Cl)cccc1-c1ccc2c(c1)OCCO2 [Example 1249, (R)-2-((5-chloro-2-((5-cyanopyridin-3-yl)methoxy)-4-((3-(2,3-dihydrobenzo[b][1,4]dioxin-6-yl)-2-methylbenzyl)oxy)benzyl)amino)-3-hydroxypropanoic acid] | 0.0006 to 0.01
19 | Cc1cc(CN2CCCC[C@H]2C(=O)O)c(OCc2cncc(C#N)c2)cc1OCc1cccc(-c2ccc3c(c2)OCCO3)c1C#N [Example 1309, (S)-1-(4-(2-cyano-3-(2,3-dihydrobenzo[b][1,4]dioxin-6-yl)benzyloxy)-2-((5-cyanopyridin-3-yl)methoxy)-5-methylbenzyl)piperidine-2-carboxylic acid] | 0.0006 to 0.01
20 | Cc1c(COc2cc(OCc3cccc(C#N)c3)c(CNC(Cc3cccc(O)c3)C(=O)O)cc2Cl)cccc1-c1ccc2c(c1)OCCO2 (centres unmarked) [Example 1159, 2-((5-chloro-2-((3-cyanobenzyl)oxy)-4-((3-(2,3-dihydrobenzo[b][1,4]dioxin-6-yl)-2-methylbenzyl)oxy)benzyl)amino)-3-(3-hydroxyphenyl)propanoic acid] | 0.01 to 0.1
